Where two headings read alike, the source gives them in different places.
Key:
[1] = ingestion of 20 to 30 g per day for several days; cited from earlier work
[2] = Mole:mole creatinine to creatine ratios required for stability at 2, 22 and 39° C. over pH 3.8 to 8.25 (Example 5); conditions: for time to reach stability: starting ratios close to equilibrium
Description: Using solutions from 1. above the following solutions were prepared at room temperature:
Triplicate samples were prepared.
The samples were capped and heat sterilized for 30 minutes at 90° C.
One set of samples was stored at 2° C., another set at 22° C. and the final set stored at 39°.

[3] = not given; remark: listed apart in the source
[4] = Flavored drink of creatine plus creatinine formed by heating: stability at 22° C. and solubility at 3° C. (Example 4); format: physicochemical; conditions: Example 4 drink at 3° C.
Description: The solution was cooled to room temperature.
In addition, the solution contained 15 percent Aloe Vera juice, flavoring and dextrose to sweeten.
Solutions from steps 1 and 2 were then mixed together and heated at 90° C. for 30 minutes to sterilize the mixture and then placed in a glass or plastic bottle and stored at 22° C.

[5] = Vandeberg et al 1996 J. Appl. Physiology 80; cited from earlier work
[6] = human body; cited from earlier work

Q: With `CN(CC(=O)O)C(=N)N.O` [creatine monohydrate] as the compound, how does the “increase in human skeletal muscle total creatine content” value [1] read?
A: The value was “greater than 20%”.

Q: And the “increase between weeks 5 and 6 as creatine monohydrate” value ([2]; 39° C.)?
A: The value was 0.113 g per litre.

Q: What does the source list for `CN(CC(=O)O)C(=N)N` [creatine]?
A: period remaining creatine stable after heating (pH's 3 and 4, after 30 minutes at 90° C., 22° C.): at least 95 days; stability of creatine with sufficient creatinine (pH's 5, 6 and 7, creatinine:creatine monohydrate 1:1, heated 30 minutes at 90° C.): exceptionally stable; loss of creatine during the heating period (pH's 6 and 7, 90° C. 30 minutes, creatinine 1:1 w/w): no loss of creatine; time to reach equilibrium ([3]; solution of low pH, composed initially of just creatine, 22° C. (FIG. 2)): up to 8 weeks; time to reach stability ([3]; starting with creatine and no creatinine, 22° C.): ≥ 4 weeks; precipitation in refrigerator [4]: did not precipitate out; mean change in creatine concentration between weeks 5 and 6 ([2]; 39° C., mean (SD)): +0.76 (SD 1.3) mmol/l; percentage change from weeks 5 and 6 ([2]; 39° C., mean (SD)): 3.1 (3.8) %; time to reach stability ([2]; incubated at 39° C.): < 5 weeks; time to reach stability ([2]; incubated between 2 and 39° C.): ≤ 6 weeks

Q: For `Cn1c(=O)c2c(ncn2C)n(C)c1=O` [caffeine], which “effect on ergogenic action of muscle creatine loading” value [5] is on record?
A: The value was “counteracted the ergogenic action of muscle creatine loading”.

Q: What about the “half life of ingested caffeine” value [6] of the same compound?
A: Its value is 5 to 6 h.
